In patent US20250188088A1, “COMPOUND AND USE THEREOF” (ONQUALITY PHARMACEUTICALS CHINA LTD., priority 2022, published 2025):

How the values were obtained:
[1] = test system: rash caused by small molecule EGFR inhibitors; experiment: Treatment of rash caused by small molecule EGFR inhibitors, topical ointment, rat model; assay type: in vivo, SD rats
Protocol: An Experiment to Verify the Treatment of Rash Caused by Small Molecule EGFR Inhibitors with Topical Administration of Compounds of the Present Application on a Rat Animal Model After the SD rats were fed and adapted for one week (about 200 g), the rats were divided into 10 rats per group. The hair on the back of rats was gently removed with an electric razor one day before the experiment, and then an intragastric administration test was carried out. EGFR inhibitors were dissolved in a sterile aqueous solution, and diluted with PBS buffer; the amount of each gavage was not more than 2 mL, and the dosage was shown in Table 3. […] The experiments were divided into the administration group with the compound of the present application and the control group. During the treatment experiment, EGFR inhibitors were intragastrically administered continuously every day. After the gavage, the administration group applied the compound ointment of the present application on the back (about 3 cm*3 cm) of rats, and the control group applied blank matrix ointment on the back (about 3 cm*3 cm); after application, the rats were fixed with a fixed cyclinder for about 4 hours, and then the rats were released, with the residual drug at the application site wiped off with clean water, and put back into the cage. The frequency of intragastric administration of EGFR inhibitors is shown in Table 3, but the compounds of the present application and blank ointment are applied only once a day. […] Table 3 lists the animal experiment combinations of various small molecule EGFR inhibitors and the compound ointment of the present application, as well as the corresponding experiment results (wherein, the value in the control rate column=the number of rats whose rash is milder in the administration group than that in the control group/the total number of rats in the administration group×100%).

[2] = Log D measurement (n-octanol/PBS shake, LC-MS/MS); assay type: physicochemical; settings: pH 7.4, read-out: LogD7.4 (Oct/buff)
Protocol: Two replicates of test compounds (DMSO stock solution 10 mM, 2 μL/well) and QCs (DMSO 10 mM, 2 μL/well) were transferred from the storage tube to a 96-well cluster tube. Add buffer-saturated n-octanol ([…]) and n-octanol-saturated PBS (149 μL/well) to each well; vortex mix the cluster tube for 1 minute, mix by shaking on a plate shaker at 880 rpm for one hour, and then centrifuge at 4000 rpm for 10 minutes. Remove the cover pad, accurately measure a certain amount of n-octanol layer samples (4 μL/well) into a 96-well plate containing n-octanol internal standard diluent (796 μL/well); accurately measure a certain amount of buffer salt layer samples (30 μL/well) into a 96-well plate containing buffer internal standard diluent (570 μL/well); the dilution factor of the sample can be adjusted according to different properties of the sample. Samples were analyzed using a triple quadrupole mass spectrometer. The processed sample solution was analyzed by the fast isocratic elution and small column retention method, the concentration correction was carried out by dilution factor and internal standard, and the ratio of the corrected peak area was used to calculate the final result (Log D/Log P value).

[3] = test system: skin contact delayed-type hypersensitivity; experiment: Skin contact delayed-type hypersensitivity (DNFB) response test, ear swelling, topical ointment; assay type: in vivo; settings: topical to ears, DNFB DTH, Balb/c mice, compared to blank ointment
Summary of the method: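 Balb/c mice sensitized with DNFB on the back on Days 0–1, then challenged on Day 5 with 0.2% DNFB on both ears. Ear thickness measured by micrometer 24–72 h after challenge. Compound ointment applied topically over Days −1–7 or Days 4–7; effect is the reduction in ear swelling versus blank ointment, with ≥20% deemed effective.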

C[C@@H]1CCN(C(=O)CC#N)C[C@@H]1N(C)c1ncnc2c1ccn2C(=O)N(C)CCOC(=O)C1CCCO1 (some centres unmarked) [Compound A7]
Control Rate ([1]; Afatinib 40 mg/kg once a day, 6 dosing modelling days, ointment 0.1 wt% once a day): 20% | Control Rate ([1]; Afatinib 40 mg/kg once a day, 6 dosing modelling days, ointment 3.0 wt% once a day): 60% | Control Rate ([1]; BPI-7711 60 mg/kg once a day, 6 dosing modelling days, ointment 3.0 wt% once a day): 70% | Control Rate ([1]; EAI045 80 mg/kg once a day, 8 dosing modelling days, ointment 1.0 wt% once a day): 50% | Control Rate ([1]; EAI045 80 mg/kg once a day, 8 dosing modelling days, ointment 5.0 wt% once a day): 80% | Control Rate ([1]; Larotinib 20 mg/kg once a day, 6 dosing modelling days, ointment 3.0 wt% once a day): 6% | Control Rate ([1]; Osimertinib 60 mg/kg twice a day, 7 dosing modelling days, ointment 3.0 wt% once a day): 10% | Control Rate ([1]; Osimertinib 60 mg/kg twice a day, 7 dosing modelling days, ointment 10.0 wt% once a day): 70% | logD [2]: 0.63 | Reduction Rate of Ear Swelling ([3]; ointment 0.05 wt%): 18% | Reduction Rate of Ear Swelling ([3]; ointment 0.1 wt%): 22% | Reduction Rate of Ear Swelling ([3]; ointment 1.0 wt%): 27% | Reduction Rate of Ear Swelling ([3]; ointment 5.0 wt%): 35% | Reduction Rate of Ear Swelling ([3]; ointment 10.0 wt%): 42%
